Structures can show the parent of a compound that is named as a salt. Where two headings read alike, the source gives them in different places.
Key:
liver = experiment: CCl4 induced hepatotoxicity in rats (serum AST/ALT); format: in vivo, rat; settings: for protection against CCl4 hepatotoxicity (in words): rats, serum enzyme levels
Description: In vivo experiments were performed to determine if alpha-TS administration protects the liver from chemical toxicity. The liver is the target organ for CCl4. CCl4 is a hepatotoxic agent that induces centrilobular liver necrosis through its metabolism to free radicals. Male Sprague-Dawley rats were given an intraperitoneal dose (100 mg/kg) of a tocopherol analog 24 hours prior to a CCl4 challenge (2.9g/kg given by oral garage). Forty eight hours after the challenge, the rats were sacrificed and the levels of aspartate aminotransferase (AST) and alanine aminotransferase (ALT) were measured.
As discussed above, SGOT levels provide a clinical assessment of hepatotoxicity (liver damage).
Succinate analogs were administered to male Sprague-Dawley rats 20 hours prior to a 1 g CCl4 /kg body weight oral challenge and the AST and ALT serum enzyme levels were measured 48 hours after the challenge.
Similar to the experiments were described above, the ionizable congeners were administered to Sprague-Dawley rats by i.p. injection of a 100 mg ionizable congener/kg body weight dose 20 hours prior to oral administration of a 1 g/kg dose of CCl4, and the AST and ALT levels were measured 48 hours after the CCl4 challenge.

male Sprague-Dawley rats = experiment: CCl4 induced lethality in rats; format: in vivo, rat; settings: 1 g/kg
Description: The in vivo effect of alpha-TS was tested by administering a lethal oral dose of carbon tetrachloride (CC14) to male Sprague-Dawley rats.
In the experiment described in Table 3, a single dose of alpha-TS dissolved in peanut oil:ethanol (3:2) was given to male Sprague-Dawley rats. The dose was given 24 hours prior to an orally administered CCl4 challenge dissolved in peanut oil. Two to nine animals were tested per treatment. The control group comprised rats pretreated with the vehicle only. Survival was monitored for at least 7 days after the toxic insult.
In vivo experiments were performed to determine if the time the ionizable tocopherol analog (alpha-TS) is administered affects the cytoprotective functions. Male Sprague-Dawley rats were given a 100 mg/kg intraperitoneal dose of a tocopherol or succinate analog and were given a lethal dose of CCl4 (2.9g/kg by oral gavage). Table 7 contrasts the times of administration of the tocopherol or succinate analog and the times of administration of the lethal dose of CCl4 with the survival of the rats in the study (3to 6 rats per protective treatment).
Several tocopherol and succinate analogs were tested for CCl4 induced lethality. A single dose of the tocopherol or succinate analog was administered twenty four hours prior to orally administering 2.9 g CCl4 /kg body weight. Three to six animals were analyzed per treatment. The rats were monitored for seven days. […]

[1] = 20 h prior, 48 h after 1 g/kg CCl4 (Table 36)
[2] = 100 mg/kg ip, 48 h after 1 g/kg CCl4 (Table 37)
[3] = Rattus norvegicus, ip, 48 h, read-out: % Hepatoprotection
[4] = 100 mg/kg ip, 48 h after 1 g/kg CCl4 (Table 33)
[5] = Rattus norvegicus, 100 mg/kg ip 20 h prior, 48 h after 1 g/kg CCl4, read-out: % Hepatoprotection
[6] = 100 mg/kg ip, PEG 400 vehicle, 48 h after 1 g/kg CCl4 (Table 34)
[7] = 100 mg/kg ip (dihydrocholesterol 80 + sodium sulfate 30 mg/kg), 48 h after 1 g/kg CCl4 (Table 35)
[8] = 100 mg/kg ip, 48 h after 1 g/kg CCl4 (Table 40)
[9] = 100 mg/kg ip, 48 h after 1 g/kg CCl4 (Table 42)
[10] = 100 mg/kg ip, peanut oil vehicle, 48 h after 1 g/kg CCl4 (Table 39)
[11] = 100 mg/kg ip, 48 h after 1 g/kg CCl4 (Table 38)
[12] = 100 mg/kg ip, 48 h after 1 g/kg CCl4 (Table 31)
[13] = 50 mg/kg ip, 48 h after 1 g/kg CCl4 (Table 41)

## CC(C)CCC[C@@H](C)[C@H]1CC[C@H]2[C@@H]3CC[C@H]4C[C@@H](OC(=O)CCC(=O)O)CC[C@]4(C)[C@H]3CC[C@]12C [Dihydrocholesterol succinate]
liver; [1]
  ALT: 0.39 ± 0.40 10^3 units/L
  AST: 0.44 ± 0.29 10^3 units/L
liver
  protection against CCl4 hepatotoxicity (in words): complete protection against hepatotoxicity

## O=C(O)CCC(=O)O [Succinic Acid, Na Salt, reference compound]
Male Sprague-Dawley rats; 24 hours or 1 hour prior and daily thereafter
  Days Survived after CCl4: 2 days
Male Sprague-Dawley rats; single dose 24 h prior, CCl4 […]
  Days Survived After CCl4 Treatment: 2 days

## C[C@]12CC[C@@H]3c4ccc(OS(=O)(=O)O)cc4CC[C@H]3[C@@H]1CCC2=O [Estrone sulfate, potassium salt]
liver; ip, 100 mg/kg, 48 h
  ALT: 0.87 ± 0.59 10^3 units/L
  AST: 4.19 ± 2.75 10^3 units/L
liver
  protection against CCl4 hepatotoxicity (in words): slight cytoprotection

## CC(C)CCC[C@@H](C)[C@H]1CC[C@H]2[C@@H]3CC[C@H]4C[C@@H](OC(=O)CCC(=O)O)CC[C@]4(C)[C@H]3CC[C@]12C [Dihydrocholesterol succinate, tris salt]
liver; [2]
  ALT: 0.09 ± 0.03 10^3 units/L
  AST: 0.19 ± 0.05 10^3 units/L
liver; [3]
  inhibition in vivo at 100 mg/kg: 100%

## C[C@]12CCC(=O)C=C1CC[C@@H]1[C@@H]2[C@@H](O)C[C@@]2(C)[C@H]1CC[C@]2(O)C(=O)COC(=O)CCC(=O)O [Hydrocortisone 21-succinate, reference compound]
liver; [4]
  ALT: 1.596 ± 0.887 10^3 units/L
  AST: 6.18 ± 3.15 10^3 units/L
liver; [5]
  inhibition in vivo at 100 mg/kg: 25%
liver
  protection against CCl4 hepatotoxicity (in words): no cytoprotection was observed

## C[C@]12CC[C@H](OS(=O)(=O)O)CC1=CC[C@@H]1[C@@H]2CC[C@]2(C)C(=O)CC[C@@H]12 [Dehydroepiandosterone 3-sulfate]
liver; [6]
  ALT: 3.89 ± 0.81 10^3 units/L
  AST: 13.85 ± 0.37 10^3 units/L
liver; [3]
  inhibition in vivo at 100 mg/kg: 4%

## C/C(=C\COC(=O)CCC(=O)O)CCCC(C)CCCC(C)CCCC(C)C (centres unmarked) [Phytol succinate]
liver; [2]
  ALT: 1.70 ± 0.18 10^3 units/L
  AST: 3.29 ± 0.51 10^3 units/L
liver; [5]
  inhibition in vivo at 100 mg/kg: 27%
liver
  protection against CCl4 hepatotoxicity (in words): generally not protective

## CCCCCCCCCCCCCCCCOC(=O)CCC(=O)O [Palmityl succinate]
liver; [4]
  ALT: 1.679 ± 0.881 10^3 units/L
  AST: 6.54 ± 3.61 10^3 units/L
liver; [5]
  inhibition in vivo at 100 mg/kg: 22%

## CCCCC/C=C\C/C=C\CCCCCCCCO [Linoleyl alcohol, reference compound]
liver; [7]
  ALT: 5.45 ± 1.10 10^3 units/L
  AST: 15.60 ± 2.98 10^3 units/L
liver
  protection against CCl4 hepatotoxicity (in words): potentiates CCl4 toxicity

## C[C@]12CC[C@@H]3c4ccc(OC(=O)CCC(=O)O)cc4CC[C@H]3[C@@H]1CCC2=O [Estrone 3-Succinate]
liver; [8]
  ALT: 0.51 ± 0.56 10^3 units/L
  AST: 1.71 ± 1.00 10^3 units/L
liver; [9]
  ALT: 0.32 ± 0.12 10^3 units/L
  AST: 0.70 ± 0.20 10^3 units/L
liver
  protection against CCl4 hepatotoxicity (in words): slight cytoprotection

## CCCCC/C=C\C/C=C\CCCCCCCCOC(=O)CCC(=O)O [Linoleyl succinate]
liver; [7]
  ALT: 1.44 ± 0.59 10^3 units/L
  AST: 4.47 ± 2.21 10^3 units/L
liver; [10]
  ALT: 1.95 ± 0.84 10^3 units/L
  AST: 5.60 ± 1.30 10^3 units/L
liver; [5]
  inhibition in vivo at 100 mg/kg: 46%

## CCCCCCCCCCCCCCCCO [Palmityl Alcohol, reference compound]
liver; [4]
  ALT: 1.840 ± 1.106 10^3 units/L
  AST: 8.70 ± 3.00 10^3 units/L
liver
  protection against CCl4 hepatotoxicity (in words): generally not protective

## CC(C)[C@@H](C)/C=C/[C@@H](C)[C@H]1CC[C@H]2C3=CC=C4C[C@@H](O)CC[C@]4(C)[C@H]3CC[C@]12C [Ergosterol, reference compound]
liver; [11]
  ALT: 0.93 ± 0.48 10^3 units/L
  AST: 1.73 ± 0.58 10^3 units/L
liver; [10]
  ALT: 0.63 ± 0.45 10^3 units/L
  AST: 1.90 ± 0.73 10^3 units/L
liver
  protection against CCl4 hepatotoxicity (in words): cytoprotection from toxic CCl4 insults

## CC(=O)Oc1ccc2c(c1)CCC1C2CC[C@]2(C)C(=O)CCC12 (some centres unmarked) [Estrone Acetate, reference compound]
liver; [9]
  ALT: 0.18 ± 0.08 10^3 units/L
  AST: 0.53 ± 0.24 10^3 units/L

## CC(C)CCC[C@@H](C)[C@H]1CC[C@H]2[C@@H]3CC=C4C[C@@H](OS(=O)(=O)O)CC[C@]4(C)[C@H]3CC[C@]12C [Cholesteryl 3-sulfate, sodium salt]
liver; [4]
  ALT: 0.240 ± .133 10^3 units/L
  AST: 0.86 ± 0.35 10^3 units/L
liver; [3]
  inhibition in vivo at 100 mg/kg: 90%
liver
  protection against CCl4 hepatotoxicity (in words): potent cytoprotective agents in vivo

## C/C(=C\CO)CCC[C@H](C)CCC[C@H](C)CCCC(C)C [Phytol, reference compound]
liver; [2]
  ALT: 2.82 ± 0.54 10^3 units/L
  AST: 4.71 ± 1.00 10^3 units/L
liver
  protection against CCl4 hepatotoxicity (in words): generally not protective

## CCCCCCCCCCCCOS(=O)(=O)[O-].[Na+] [Lauryl sulfate, sodium salt]
liver; [8]
  ALT: 1.40 ± 0.59 10^3 units/L
  AST: 5.00 ± 1.54 10^3 units/L
liver; [3]
  inhibition in vivo at 100 mg/kg: 26%
liver
  protection against CCl4 hepatotoxicity (in words): generally not protective

## CC(C)[C@@H](C)/C=C/[C@@H](C)[C@H]1CC[C@H]2C3=CC=C4C[C@@H](OC(=O)CCC(=O)O)CC[C@]4(C)[C@H]3CC[C@]12C [Ergosterol succinate, tris salt]
liver; [11]
  ALT: 0.46 ± 0.25 10^3 units/L
  AST: 0.80 ± 0.28 10^3 units/L
liver; [3]
  inhibition in vivo at 100 mg/kg: 80%
liver
  protection against CCl4 hepatotoxicity (in words): protection against hepatotoxicity

## CC(C)[C@@H](C)/C=C/[C@@H](C)[C@H]1CC[C@H]2C3=CC=C4C[C@@H](OS(=O)(=O)O)CC[C@]4(C)[C@H]3CC[C@]12C [Ergosterol sulfate, potassium salt]
liver; [11]
  ALT: 0.28 ± 0.37 10^3 units/L
  AST: 0.58 ± 0.53 10^3 units/L
liver; [3]
  inhibition in vivo at 100 mg/kg: 86%
liver
  protection against CCl4 hepatotoxicity (in words): protection against hepatotoxicity

## CC(=O)O[C@H]1CC[C@@]2(C)C(=CC[C@H]3[C@@H]4CC[C@H]([C@H](C)CCCC(C)C)[C@@]4(C)CC[C@@H]32)C1 [Cholesterol acetate, reference compound]
liver; [12]
  ALT: 0.96 ± 0.32 10^3 units/L
  AST: 3.06 ± 1.06 10^3 units/L
liver
  protection against CCl4 hepatotoxicity (in words): provided no protection

## C[C@]12CC[C@H](OC(=O)CCC(=O)O)CC1=CC[C@@H]1[C@@H]2CC[C@]2(C)C(=O)CC[C@@H]12 [Dehydroepiandosterone 3-succinate]
liver; [10]
  ALT: 3.89 ± 1.77 10^3 units/L
  AST: 10.42 ± 3.36 10^3 units/L
liver; [3]
  inhibition in vivo at 100 mg/kg: 0%

## CC(C)CCC[C@@H](C)[C@H]1CC[C@H]2[C@@H]3CC=C4C[C@@H](OC(=O)c5ccccc5C(=O)O)CC[C@]4(C)[C@H]3CC[C@]12C [Cholesteryl hydrogen phthalate]
liver; [6]
  ALT: 0.06 ± 0.03 10^3 units/L
  AST: 0.30 ± 0.12 10^3 units/L
liver; [3]
  inhibition in vivo at 100 mg/kg: 100%
liver
  protection against CCl4 hepatotoxicity (in words): potent cytoprotective agents in vivo

## C[C@]12CC[C@@H]3c4ccc(O)cc4CC[C@H]3[C@@H]1CCC2=O [Estrone, reference compound]
liver; [9]
  ALT: 0.33 ± 0.30 10^3 units/L
  AST: 0.56 ± 0.45 10^3 units/L

## CC1=C(/C=C/C(C)=C/C=C/C(C)=C/C(=O)O)C(C)(C)CCC1 [Retinoic acid, reference compound]
liver; [13]
  ALT: 6.14 ± 0.74 10^3 units/L
  AST: 17.94 ± 0.71 10^3 units/L
liver; Rattus norvegicus, 50 mg/kg ip 20 h prior, 48 h after 1 g/kg CCl4, read-out: % Hepatoprotection
  inhibition in vivo at 50 mg/kg: -83%
liver
  protection against CCl4 hepatotoxicity (in words): potentiated CCl4 toxicity

Reference: US5336485A, “Method for protecting animals against tacrine induced cytotoxic injury using sterol compounds” (priority 1993, dated 1994)
